How the values were obtained:
Format in all cases: in vivo
[1] = tested on: Amaranthus retoflexus (AMARE); experiment: Post-emergence herbicidal glasshouse test; conditions: for percentage damage caused to the plant, five-point scale, AMARE: post-emergence, 250 g/ha, 13 days after application; for % phytotoxicity AMARE: comparative post-emergence test
Protocol: (§1) Seeds of a variety of test species are shown in standard soil in pots Amaranthus retoflexus (AMARE), Ipomoea hederacea (IPOHE), Solanum nigrum (SOLNI), Lolium perenne (LOLPE). Echinochloa crus-galli (ECHCG), Setaria faberi (SETFA)). After cultivation for one day (pre-emergence) or after 8 days cultivation (post-emergence) under controlled conditions in a glasshouse (at 24/16° C., day/night; 14 hours light; 65% humidity), the plants are sprayed with an aqueous spray solution derived from the formulation of the technical active ingredient in acetone/water (50:50) solution containing 0.5% Tween 20 (polyoxyethylene sorbitan monolaurate, CAS RN 9005-64-5). Compounds are applied at 250 g/ha unless otherwise stated. The test plants are then grown in a glasshouse under controlled conditions in a glasshouse (at 24/16° C., day/night; 14 hours light; 65% humidity) and watered twice daily. After 13 days for pre and post-emergence, the test is evaluated for the percentage damage caused to the plant. The biological activities are shown in the following table on a five-point scale (5=81-100%; 4=61-80%; 3=41-60%; 2=21-40%; 1=0-20%).
(§2) Using the experimental conditions outlined above, a further test is conducted to compare the herbicidal properties of the difluro containing compound (1.014) with a representative compound (C1) referred to in GB901553. The compounds are applied at 1000 g/ha and 500 g/ha. The test is evaluated for the percentage damage caused to the plant (% phytotoxicity).

[2] = tested on: Echinochloa crus-galli (ECHCG); experiment: Post-emergence herbicidal glasshouse test; conditions: for percentage damage caused to the plant, five-point scale, ECHCG: post-emergence, 250 g/ha, 13 days after application; for % phytotoxicity ECHCG: comparative post-emergence test
Protocol: as §1, §2

[3] = tested on: Lolium perenne (LOLPE); experiment: Post-emergence herbicidal glasshouse test; conditions: for percentage damage caused to the plant, five-point scale, LOLPE: post-emergence, 250 g/ha, 13 days after application; for % phytotoxicity LOLPE: comparative post-emergence test
Protocol: as §1, §2

[4] = tested on: Ipomoea hederacea (IPOHE); experiment: Post-emergence herbicidal glasshouse test; conditions: for percentage damage caused to the plant, five-point scale, IPOHE: post-emergence, 250 g/ha, 13 days after application; for % phytotoxicity IPOHE: comparative post-emergence test
Protocol: as §1, §2

[5] = tested on: Solanum nigrum (SOLNI); experiment: Post-emergence herbicidal glasshouse test; conditions: for percentage damage caused to the plant, five-point scale, SOLNI: post-emergence, 250 g/ha, 13 days after application; for % phytotoxicity SOLNI: comparative post-emergence test
Protocol: as §1, §2

[6] = tested on: Setaria faberi (SETFA); experiment: Post-emergence herbicidal glasshouse test; conditions: for percentage damage caused to the plant, five-point scale, SETFA: post-emergence, 250 g/ha, 13 days after application; for % phytotoxicity SETFA: comparative post-emergence test
Protocol: as §1, §2

[7] = tested on: Amaranthus retoflexus (AMARE); experiment: Pre-emergence herbicidal glasshouse test; conditions: for percentage damage caused to the plant, five-point scale, AMARE: pre-emergence, 250 g/ha, 13 days after application; for % phytotoxicity AMARE: comparative pre-emergence test
Protocol: as §1, §2

[8] = tested on: Echinochloa crus-galli (ECHCG); experiment: Pre-emergence herbicidal glasshouse test; conditions: for percentage damage caused to the plant, five-point scale, ECHCG: pre-emergence, 250 g/ha, 13 days after application; for % phytotoxicity ECHCG: comparative pre-emergence test
Protocol: as §1, §2

[9] = tested on: Lolium perenne (LOLPE); experiment: Pre-emergence herbicidal glasshouse test; conditions: for percentage damage caused to the plant, five-point scale, LOLPE: pre-emergence, 250 g/ha, 13 days after application; for % phytotoxicity LOLPE: comparative pre-emergence test
Protocol: as §1, §2

[10] = tested on: Ipomoea hederacea (IPOHE); experiment: Pre-emergence herbicidal glasshouse test; conditions: for percentage damage caused to the plant, five-point scale, IPOHE: pre-emergence, 250 g/ha, 13 days after application; for % phytotoxicity IPOHE: comparative pre-emergence test
Protocol: as §1, §2

[11] = tested on: Solanum nigrum (SOLNI); experiment: Pre-emergence herbicidal glasshouse test; conditions: for percentage damage caused to the plant, five-point scale, SOLNI: pre-emergence, 250 g/ha, 13 days after application; for % phytotoxicity SOLNI: comparative pre-emergence test
Protocol: as §1, §2

[12] = tested on: Setaria faberi (SETFA); experiment: Pre-emergence herbicidal glasshouse test; conditions: for percentage damage caused to the plant, five-point scale, SETFA: pre-emergence, 250 g/ha, 13 days after application; for % phytotoxicity SETFA: comparative pre-emergence test
Protocol: as §1, §2

SMILES: O=C(O)C(F)(F)c1cccc(F)c1F [Compound 1.031]
- percentage damage caused to the plant, five-point scale, AMARE [1]: 3 (3=41-60%)
- percentage damage caused to the plant, five-point scale, ECHCG [2]: 1 (1=0-20%)
- percentage damage caused to the plant, five-point scale, LOLPE [3]: 1 (1=0-20%)
- percentage damage caused to the plant, five-point scale, IPOHE [4]: 3 (3=41-60%)
- percentage damage caused to the plant, five-point scale, SOLNI [5]: 3 (3=41-60%)
- percentage damage caused to the plant, five-point scale, SETFA [6]: 1 (1=0-20%)
- percentage damage caused to the plant, five-point scale, AMARE [7]: 1 (1=0-20%)
- percentage damage caused to the plant, five-point scale, ECHCG [8]: 1 (1=0-20%)
- percentage damage caused to the plant, five-point scale, LOLPE [9]: 1 (1=0-20%)
- percentage damage caused to the plant, five-point scale, IPOHE [10]: 3 (3=41-60%)
- percentage damage caused to the plant, five-point scale, SOLNI [11]: 1 (1=0-20%)
- percentage damage caused to the plant, five-point scale, SETFA [12]: 1 (1=0-20%)

SMILES: O=C(O)C(F)(F)c1cccc(F)c1Br [Compound 1.032]
- percentage damage caused to the plant, five-point scale, AMARE [1]: 4 (4=61-80%)
- percentage damage caused to the plant, five-point scale, ECHCG [2]: 1 (1=0-20%)
- percentage damage caused to the plant, five-point scale, LOLPE [3]: 1 (1=0-20%)
- percentage damage caused to the plant, five-point scale, IPOHE [4]: 4 (4=61-80%)
- percentage damage caused to the plant, five-point scale, SOLNI [5]: 4 (4=61-80%)
- percentage damage caused to the plant, five-point scale, SETFA [6]: 1 (1=0-20%)
- percentage damage caused to the plant, five-point scale, AMARE [7]: 4 (4=61-80%)
- percentage damage caused to the plant, five-point scale, ECHCG [8]: 1 (1=0-20%)
- percentage damage caused to the plant, five-point scale, LOLPE [9]: 1 (1=0-20%)
- percentage damage caused to the plant, five-point scale, IPOHE [10]: 4 (4=61-80%)
- percentage damage caused to the plant, five-point scale, SOLNI [11]: 4 (4=61-80%)
- percentage damage caused to the plant, five-point scale, SETFA [12]: 1 (1=0-20%)

SMILES: O=C(O)C(F)(F)c1cccc(Br)c1F [Compound 1.033]
- percentage damage caused to the plant, five-point scale, AMARE [1]: 5 (5=81-100%)
- percentage damage caused to the plant, five-point scale, ECHCG [2]: 4 (4=61-80%)
- percentage damage caused to the plant, five-point scale, LOLPE [3]: 1 (1=0-20%)
- percentage damage caused to the plant, five-point scale, IPOHE [4]: 4 (4=61-80%)
- percentage damage caused to the plant, five-point scale, SOLNI [5]: 5 (5=81-100%)
- percentage damage caused to the plant, five-point scale, SETFA [6]: 4 (4=61-80%)
- percentage damage caused to the plant, five-point scale, AMARE [7]: 5 (5=81-100%)
- percentage damage caused to the plant, five-point scale, ECHCG [8]: 4 (4=61-80%)
- percentage damage caused to the plant, five-point scale, LOLPE [9]: 1 (1=0-20%)
- percentage damage caused to the plant, five-point scale, IPOHE [10]: 4 (4=61-80%)
- percentage damage caused to the plant, five-point scale, SOLNI [11]: 5 (5=81-100%)
- percentage damage caused to the plant, five-point scale, SETFA [12]: 4 (4=61-80%)

SMILES: O=C(O)C(F)(F)c1cccc(F)c1Cl [Compound 1.036]
- percentage damage caused to the plant, five-point scale, AMARE [1]: 4 (4=61-80%)
- percentage damage caused to the plant, five-point scale, ECHCG [2]: 1 (1=0-20%)
- percentage damage caused to the plant, five-point scale, LOLPE [3]: 1 (1=0-20%)
- percentage damage caused to the plant, five-point scale, IPOHE [4]: 4 (4=61-80%)
- percentage damage caused to the plant, five-point scale, SOLNI [5]: 4 (4=61-80%)
- percentage damage caused to the plant, five-point scale, SETFA [6]: 1 (1=0-20%)
- percentage damage caused to the plant, five-point scale, AMARE [7]: 4 (4=61-80%)
- percentage damage caused to the plant, five-point scale, ECHCG [8]: 1 (1=0-20%)
- percentage damage caused to the plant, five-point scale, LOLPE [9]: 1 (1=0-20%)
- percentage damage caused to the plant, five-point scale, IPOHE [10]: 4 (4=61-80%)
- percentage damage caused to the plant, five-point scale, SOLNI [11]: 4 (4=61-80%)
- percentage damage caused to the plant, five-point scale, SETFA [12]: 1 (1=0-20%)

SMILES: O=C(O)C(F)(F)c1cccc(Br)c1Cl [Compound 1.037]
- percentage damage caused to the plant, five-point scale, AMARE [1]: 5 (5=81-100%)
- percentage damage caused to the plant, five-point scale, ECHCG [2]: 4 (4=61-80%)
- percentage damage caused to the plant, five-point scale, LOLPE [3]: 3 (3=41-60%)
- percentage damage caused to the plant, five-point scale, IPOHE [4]: 4 (4=61-80%)
- percentage damage caused to the plant, five-point scale, SOLNI [5]: 5 (5=81-100%)
- percentage damage caused to the plant, five-point scale, SETFA [6]: 4 (4=61-80%)
- percentage damage caused to the plant, five-point scale, AMARE [7]: 5 (5=81-100%)
- percentage damage caused to the plant, five-point scale, ECHCG [8]: 4 (4=61-80%)
- percentage damage caused to the plant, five-point scale, LOLPE [9]: 3 (3=41-60%)
- percentage damage caused to the plant, five-point scale, IPOHE [10]: 4 (4=61-80%)
- percentage damage caused to the plant, five-point scale, SOLNI [11]: 5 (5=81-100%)
- percentage damage caused to the plant, five-point scale, SETFA [12]: 4 (4=61-80%)

SMILES: O=C(O)C(Cl)(Cl)c1cccc(Cl)c1Cl [Compound C1, reference compound]
- % phytotoxicity AMARE ([1]; 500 g/ha): 80%
- % phytotoxicity AMARE ([1]; 1000 g/ha): 80%
- % phytotoxicity ECHCG ([2]; 500 g/ha): 0%
- % phytotoxicity ECHCG ([2]; 1000 g/ha): 10%
- % phytotoxicity LOLPE ([3]; 500 g/ha): 0%
- % phytotoxicity LOLPE ([3]; 1000 g/ha): 20%
- % phytotoxicity IPOHE ([4]; 500 g/ha): 70%
- % phytotoxicity IPOHE ([4]; 1000 g/ha): 80%
- % phytotoxicity SOLNI ([5]; 500 g/ha): 60%
- % phytotoxicity SOLNI ([5]; 1000 g/ha): 70%
- % phytotoxicity SETFA ([6]; 500 g/ha): 0%
- % phytotoxicity SETFA ([6]; 1000 g/ha): 10%
- % phytotoxicity AMARE ([7]; 500 g/ha): 80%
- % phytotoxicity AMARE ([7]; 1000 g/ha): 80%
- % phytotoxicity ECHCG ([8]; 500 g/ha): 0%
- % phytotoxicity ECHCG ([8]; 1000 g/ha): 0%
- % phytotoxicity LOLPE ([9]; 500 g/ha): 0%
- % phytotoxicity LOLPE ([9]; 1000 g/ha): 0%
- % phytotoxicity IPOHE ([10]; 500 g/ha): 30%
- % phytotoxicity IPOHE ([10]; 1000 g/ha): 60%
- % phytotoxicity SOLNI ([11]; 500 g/ha): 60%
- % phytotoxicity SOLNI ([11]; 1000 g/ha): 70%
- % phytotoxicity SETFA ([12]; 500 g/ha): 0%
- % phytotoxicity SETFA ([12]; 1000 g/ha): 0%

From patent US12319648B2, “Fluorinated phenylacetic acid derivatives in a weed control method” (SYNGENTA CROP PROTECTION AG, priority 2019, dated 2025)
